Measurements published in ChEMBL document CHEMBL1201861, “Genomics of Drug Sensitity in Cancer screening data, Wellcome Trust Sanger Institute”.

Experiments:
Assay in all cases: cells
[1] = tested on: CHP-212; format: functional, cell-based; details: Homo sapiens
Description: SANGER: Inhibition of human CHP-212 cell growth in a cell viability assay.

[2] = tested on: Ca9-22; format: functional, cell-based; details: Homo sapiens;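 also: growth inhibition of Ca9-22 cells, read out with a cell viability assay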
Description: SANGER: Inhibition of human Ca9-22 cell growth in a cell viability assay.

[3] = tested on: DMS-273; format: functional, cell-based; details: Homo sapiens
Description: SANGER: Inhibition of human DMS-273 cell growth in a cell viability assay.

[4] = tested on: SNU-387; format: functional, cell-based; details: Homo sapiens
Description: SANGER: Inhibition of human SNU-387 cell growth in a cell viability assay.

[5] = tested on: SW1463; format: functional, cell-based; details: Homo sapiens;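 also: growth inhibition of SW1463 cells, determined with a cell viability assay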
Description: SANGER: Inhibition of human SW1463 cell growth in a cell viability assay.

[6] = tested on: RD; format: functional, cell-based; details: Homo sapiens
Description: SANGER: Inhibition of human RD cell growth in a cell viability assay.

[7] = tested on: BXPC-3; format: functional, cell-based; details: Homo sapiens;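 also: growth inhibition of human BxPC-3 cells, read out by a cell viability assay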
Description: SANGER: Inhibition of human BxPC-3 cell growth in a cell viability assay.

[8] = tested on: CAL-72; format: functional, cell-based; details: Homo sapiens;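 also: cell viability assay measuring inhibition of proliferation in the CAL-72 cell line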
Description: SANGER: Inhibition of human CAL-72 cell growth in a cell viability assay.

[9] = tested on: OAW-28; format: functional, cell-based; details: Homo sapiens;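 also: growth inhibition of OAW-28 cells, read out with a cell viability assay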
Description: SANGER: Inhibition of human OAW-28 cell growth in a cell viability assay.

[10] = tested on: SW13; format: functional, cell-based; details: Homo sapiens;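 also: IC50 is inhibition of SW13 cell growth, read out with a cell viability assay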
Description: SANGER: Inhibition of human SW13 cell growth in a cell viability assay.

[11] = tested on: G-402; format: functional, cell-based; details: Homo sapiens
Description: SANGER: Inhibition of human G-402 cell growth in a cell viability assay.

[12] = tested on: SK-LU-1; format: functional, cell-based; details: Homo sapiens;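 also: cell viability assay measuring growth inhibition of human SK-LU-1 cells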
Description: SANGER: Inhibition of human SK-LU-1 cell growth in a cell viability assay.

[13] = tested on: NCI-H2030; format: functional, cell-based; details: Homo sapiens;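 also: growth inhibition of human NCI-H2030 cells, read out by a cell viability assay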
Description: SANGER: Inhibition of human NCI-H2030 cell growth in a cell viability assay.

[14] = tested on: ESS-1; format: functional, cell-based; details: Homo sapiens;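 also: growth inhibition of human ESS-1 cells, read out by a cell viability assay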
Description: SANGER: Inhibition of human ESS-1 cell growth in a cell viability assay.

[15] = tested on: MKN-1; format: functional, cell-based; details: Homo sapiens;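 also: growth inhibition of human MKN1 cells, read out by a cell viability measurement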
Description: SANGER: Inhibition of human MKN1 cell growth in a cell viability assay.

[16] = tested on: NB12; format: functional, cell-based; details: Homo sapiens;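 also: growth inhibition of human NB12 cells, read out by a cell viability assay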
Description: SANGER: Inhibition of human NB12 cell growth in a cell viability assay.

[17] = tested on: KYSE-270; format: functional, cell-based; details: Homo sapiens;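 also: cell growth inhibition measured with a viability assay in the human KYSE-270 line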
Description: SANGER: Inhibition of human KYSE-270 cell growth in a cell viability assay.

[18] = tested on: CWR22R; format: functional, cell-based; details: Homo sapiens, 22Rv1;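 also: growth inhibition of 22Rv1 cells, read out with a cell viability assay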
Description: SANGER: Inhibition of human 22RV1 cell growth in a cell viability assay.

[19] = tested on: SW-620; format: functional, cell-based; details: Homo sapiens;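 also: growth inhibition of human SW-620 cells, measured by a cell viability assay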
Description: SANGER: Inhibition of human SW620 cell growth in a cell viability assay.

[20] = tested on: BHY; format: functional, cell-based; details: Homo sapiens;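 also: cell growth inhibition read out by a viability assay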
Description: SANGER: Inhibition of human BHY cell growth in a cell viability assay.

[21] = tested on: ACHN; format: functional, cell-based; details: Homo sapiens;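 also: cell viability read-out used to gauge how strongly growth of human ACHN cells is suppressed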
Description: SANGER: Inhibition of human ACHN cell growth in a cell viability assay.

[22] = tested on: NCI-H2342; format: functional, cell-based; details: Homo sapiens;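 also: growth inhibition of the cancer cell line, determined with a cell viability assay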
Description: SANGER: Inhibition of human NCI-H2342 cell growth in a cell viability assay.

[23] = tested on: MDA-MB-231; format: functional, cell-based; details: Homo sapiens
Description: SANGER: Inhibition of human MDA-MB-231 cell growth in a cell viability assay.

[24] = tested on: ChaGo-K-1; format: functional, cell-based; details: Homo sapiens;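 also: growth inhibition of ChaGo-K-1 cells, read out with a cell viability assay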
Description: SANGER: Inhibition of human ChaGo-K-1 cell growth in a cell viability assay.

[25] = tested on: LoVo; format: functional, cell-based; details: Homo sapiens;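 also: growth inhibition of human LoVo cells, read out with a cell viability assay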
Description: SANGER: Inhibition of human LoVo cell growth in a cell viability assay.

[26] = tested on: NCI-H650; format: functional, cell-based; details: Homo sapiens;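 also: growth inhibition of NCI-H650 cells, read out by a viability assay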
Description: SANGER: Inhibition of human NCI-H650 cell growth in a cell viability assay.

[27] = tested on: HuO-3N1; format: functional, cell-based; details: Homo sapiens;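 also: cell viability readout used to measure how strongly compounds suppress proliferation of human HuO-3N1 cells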
Description: SANGER: Inhibition of human HuO-3N1 cell growth in a cell viability assay.

[28] = tested on: SNU-423; format: functional, cell-based; details: Homo sapiens
Description: SANGER: Inhibition of human SNU-423 cell growth in a cell viability assay.

[29] = tested on: MC-IXC; format: functional, cell-based; details: Homo sapiens;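 also: growth inhibition of MC-IXC cells, read out with a cell viability assay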
Description: SANGER: Inhibition of human MC-IXC cell growth in a cell viability assay.

[30] = tested on: SK-HEP1; format: functional, cell-based, SK-HEP-1; details: Homo sapiens;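 also: cell viability readout used to quantify reduction in proliferation of human SK-HEP-1 cells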
Description: SANGER: Inhibition of human SK-HEP-1 cell growth in a cell viability assay.

[31] = tested on: NCI-H810; format: functional, cell-based; details: Homo sapiens;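 also: IC50 reflects inhibition of cancer cell line growth, read out with a cell viability assay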
Description: SANGER: Inhibition of human NCI-H810 cell growth in a cell viability assay.

[32] = tested on: CAPAN-1; format: functional, cell-based; details: Homo sapiens;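 also: growth suppression of CAPAN-1 cells, read out by a cell viability assay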
Description: SANGER: Inhibition of human CAPAN-1 cell growth in a cell viability assay.

[33] = tested on: NCI-H2228; format: functional, cell-based; details: Homo sapiens;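 also: growth inhibition of human NCI-H2228 cells, read out by a cell viability assay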
Description: SANGER: Inhibition of human NCI-H2228 cell growth in a cell viability assay.

[34] = tested on: NCI-H1755; format: functional, cell-based; details: Homo sapiens;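 also: cell viability readout used to measure growth inhibition of NCI-H1755 cells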
Description: SANGER: Inhibition of human NCI-H1755 cell growth in a cell viability assay.

[35] = tested on: WM-115; format: functional, cell-based; details: Homo sapiens
Description: SANGER: Inhibition of human WM-115 cell growth in a cell viability assay.

[36] = tested on: CAMA-1; format: functional, cell-based; details: Homo sapiens;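 also: growth inhibition of CAMA-1 cells, read out with a cell viability assay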
Description: SANGER: Inhibition of human CAMA-1 cell growth in a cell viability assay.

[37] = tested on: MeWo; format: functional, cell-based; details: Homo sapiens;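 also: growth inhibition of MeWo cells, determined by a cell viability readout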
Description: SANGER: Inhibition of human Mewo cell growth in a cell viability assay.

[38] = tested on: HTC-C3; format: functional, cell-based; details: Homo sapiens;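 also: inhibition of cell growth, read out with a cell viability assay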
Description: SANGER: Inhibition of human HTC-C3 cell growth in a cell viability assay.

[39] = tested on: SCC-25; format: functional, cell-based; details: Homo sapiens;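 also: growth inhibition of SCC-25 cells, measured with a cell viability assay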
Description: SANGER: Inhibition of human SCC-25 cell growth in a cell viability assay.

[40] = tested on: SW1783; format: functional, cell-based; details: Homo sapiens;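 also: cell growth inhibition measured with a viability assay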
Description: SANGER: Inhibition of human SW1783 cell growth in a cell viability assay.

[41] = tested on: HT-1376; format: functional, cell-based; details: Homo sapiens
Description: SANGER: Inhibition of human HT-1376 cell growth in a cell viability assay.

[42] = tested on: SW1088; format: functional, cell-based; details: Homo sapiens;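 also: growth inhibition of human SW1088 cells, read out by a cell viability assay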
Description: SANGER: Inhibition of human SW1088 cell growth in a cell viability assay.

[43] = tested on: HSC-2; format: functional, cell-based; details: Homo sapiens;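 also: growth inhibition of human HSC-2 cells, read out by a cell viability assay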
Description: SANGER: Inhibition of human HSC-2 cell growth in a cell viability assay.

[44] = tested on: SK-MEL-28; format: functional, cell-based; details: Homo sapiens;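 also: growth inhibition of human SK-MEL-28 cells, read out with a cell viability assay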
Description: SANGER: Inhibition of human SK-MEL-28 cell growth in a cell viability assay.

[45] = tested on: COR-L105; format: functional, cell-based; details: Homo sapiens;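 also: cell growth inhibition determined with a viability assay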
Description: SANGER: Inhibition of human COR-L105 cell growth in a cell viability assay.

[46] = tested on: MFH-ino; format: functional, cell-based, Homo sapiens; details: Homo sapiens, MFH-ino;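 also: growth inhibition of human MFH-ino cells, read out by a cell viability assay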
Description: SANGER: Inhibition of human MFH-ino cell growth in a cell viability assay.

[47] = tested on: LB373-MEL-D; format: functional, cell-based, Homo sapiens; details: Homo sapiens, LB373-MEL-D;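 also: growth inhibition of the cell line, read out in a cell viability assay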
Description: SANGER: Inhibition of human LB373-MEL-D cell growth in a cell viability assay.

[48] = tested on: OVCAR-5; format: functional, cell-based; details: Homo sapiens;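 also: growth inhibition of human OVCAR-5 cells, read out with a cell viability assay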
Description: SANGER: Inhibition of human OVCAR-5 cell growth in a cell viability assay.

[49] = tested on: HuTu80; format: functional, cell-based, Homo sapiens, HUTU-80; details: Homo sapiens, HuTu80;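 also: growth inhibition of HuTu80 human cells, determined with a cell viability readout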
Description: SANGER: Inhibition of human HUTU-80 cell growth in a cell viability assay.

[50] = tested on: G-361; format: functional, cell-based; details: Homo sapiens

O=C1NC(=O)c2c1c(-c1ccccc1Cl)cc1[nH]c3ccc(O)cc3c21
IC50 [1]: 0.619 µM
IC50 [2]: > 2 µM
IC50 [3]: > 2 µM
IC50 [4]: > 2 µM
IC50 [5]: > 2 µM
IC50 [6]: > 2 µM
IC50 [7]: > 2 µM
IC50 [8]: 1.82 µM
IC50 [9]: > 2 µM
IC50 [10]: > 2 µM
IC50 [11]: > 2 µM
IC50 [12]: 1 µM
IC50 [13]: 1.29 µM
IC50 [14]: > 2 µM
IC50 [15]: > 2 µM
IC50 [16]: > 2 µM
IC50 [17]: 1.48 µM
IC50 [18]: > 2 µM
IC50 [19]: > 2 µM
IC50 [20]: 1.15 µM
IC50 [21]: 0.542 µM
IC50 [22]: > 2 µM
IC50 [23]: > 2 µM
IC50 [24]: > 2 µM
IC50 [25]: > 2 µM
IC50 [26]: > 2 µM
IC50 [27]: > 2 µM
IC50 [28]: > 2 µM
IC50 [29]: > 2 µM
IC50 [30]: > 2 µM
IC50 [31]: > 2 µM
IC50 [32]: > 2 µM
IC50 [33]: > 2 µM
IC50 [34]: > 2 µM
IC50 [35]: > 2 µM
IC50 [36]: > 2 µM
IC50 [37]: > 2 µM
IC50 [38]: 0.995 µM
IC50 [39]: > 2 µM
IC50 [40]: > 2 µM
IC50 [41]: > 2 µM
IC50 [42]: > 2 µM
IC50 [43]: > 2 µM
IC50 [44]: > 2 µM
IC50 [45]: > 2 µM

NC(=O)Nc1cc(-c2cccc(F)c2)sc1C(=O)N[C@H]1CCCNC1 [AZD-7762]
IC50 [1]: 0.198 µM
IC50 [2]: 0.541 µM
IC50 [3]: 0.755 µM
IC50 [4]: 0.243 µM
IC50 [46]: > 2 µM
IC50 [5]: > 2 µM
IC50 [6]: > 2 µM
IC50 [7]: 1.31 µM
IC50 [8]: > 2 µM
IC50 [9]: 1.85 µM
IC50 [10]: > 2 µM
IC50 [11]: 0.0646 µM
IC50 [12]: 0.0842 µM
IC50 [13]: 1.02 µM
IC50 [47]: > 2 µM
IC50 [48]: 0.139 µM
IC50 [14]: 0.164 µM
IC50 [15]: 0.35 µM
IC50 [16]: > 2 µM
IC50 [17]: 0.226 µM
IC50 [49]: > 2 µM
IC50 [18]: 1.81 µM
IC50 [19]: 0.662 µM
IC50 [20]: 0.688 µM
IC50 [21]: 0.134 µM
IC50 [22]: > 2 µM
IC50 [23]: 1.6 µM
IC50 [50]: 0.387 µM
IC50 [24]: 0.325 µM
IC50 [25]: 0.162 µM
IC50 [26]: 1.42 µM
IC50 [27]: 0.941 µM
IC50 [28]: 0.535 µM
IC50 [29]: 0.128 µM
IC50 [30]: > 2 µM
IC50 [31]: > 2 µM
IC50 [32]: > 2 µM
IC50 [33]: 1.29 µM
IC50 [34]: 0.273 µM
IC50 [35]: > 2 µM
IC50 [36]: > 2 µM
IC50 [37]: 0.304 µM
IC50 [38]: 0.835 µM
IC50 [39]: > 2 µM
IC50 [40]: 0.933 µM
IC50 [41]: > 2 µM
IC50 [42]: 0.916 µM
IC50 [43]: 0.873 µM
IC50 [44]: > 2 µM
IC50 [45]: 0.222 µM

O=C(NCCCNc1nc(Nc2cccc(NC(=O)N3CCCC3)c2)ncc1I)c1cccs1 [BX-795]
IC50 [1]: 1.14 µM
IC50 [2]: 2.13 µM
IC50 [3]: > 5 µM
IC50 [4]: 3.81 µM
IC50 [5]: > 5 µM
IC50 [6]: > 5 µM
IC50 [7]: > 5 µM
IC50 [8]: 4.22 µM
IC50 [9]: > 5 µM
IC50 [10]: > 5 µM
IC50 [11]: 1.47 µM
IC50 [12]: > 5 µM
IC50 [13]: > 5 µM
IC50 [48]: 2.28 µM
IC50 [14]: > 5 µM
IC50 [15]: > 5 µM
IC50 [16]: > 5 µM
IC50 [17]: > 5 µM
IC50 [18]: > 5 µM
IC50 [19]: > 5 µM
IC50 [20]: > 5 µM
IC50 [21]: > 5 µM
IC50 [22]: > 5 µM
IC50 [23]: > 5 µM
IC50 [24]: > 5 µM
IC50 [25]: > 5 µM
IC50 [26]: 3.4 µM
IC50 [27]: 2.6 µM
IC50 [28]: 3.91 µM
IC50 [29]: 2.9 µM
IC50 [30]: 2.97 µM
IC50 [31]: 3.9 µM
IC50 [32]: > 5 µM
IC50 [33]: > 5 µM
IC50 [34]: 2.54 µM
IC50 [35]: 3.88 µM
IC50 [36]: > 5 µM
IC50 [37]: > 5 µM
IC50 [38]: > 5 µM
IC50 [39]: > 5 µM
IC50 [40]: 3.54 µM
IC50 [41]: > 5 µM
IC50 [42]: 2 µM
IC50 [43]: > 5 µM
IC50 [44]: > 5 µM
IC50 [45]: > 5 µM
